Assay results as given in the NIST ThermoML archive (doi:10.1016/j.jct.2016.03.026).

Assay: xn = mol fraction of the nth substance listed
Conditions: 313.15 K, Fluid (supercritical or subcritical phases), Vibrating tube method, x1 = 0.97

O=C=O [carbon dioxide] + CO
Conditions | mass density [kg/m3]
14200 kPa | 782.93
14225 kPa | 783.28
14250 kPa | 783.65
14275 kPa | 784.01
14300 kPa | 784.39
14325 kPa | 784.77
14350 kPa | 785.15
14375 kPa | 785.52
14400 kPa | 785.88
14425 kPa | 786.27
14450 kPa | 786.66
14475 kPa | 787.01
14500 kPa | 787.34
14525 kPa | 787.73
14550 kPa | 788.05
14575 kPa | 788.43
14600 kPa | 788.78
14625 kPa | 789.1
14650 kPa | 789.51
14675 kPa | 789.86
14700 kPa | 790.23
14725 kPa | 790.55
14750 kPa | 790.91
14775 kPa | 791.25
14800 kPa | 791.65
14825 kPa | 791.96
14850 kPa | 792.31
14875 kPa | 792.64
14900 kPa | 793.03
14925 kPa | 793.37
14950 kPa | 793.74
14975 kPa | 794.09
15000 kPa | 794.4
15025 kPa | 794.78
15050 kPa | 795.16
15075 kPa | 795.5
15100 kPa | 795.8
15125 kPa | 796.2
15150 kPa | 796.56
15175 kPa | 796.89
15200 kPa | 797.19
15225 kPa | 797.52
15250 kPa | 797.89
15275 kPa | 798.26
15300 kPa | 798.53
15325 kPa | 798.91
15350 kPa | 799.22
15375 kPa | 799.54
15400 kPa | 799.88
15425 kPa | 800.19
15450 kPa | 800.53
15475 kPa | 800.87
15500 kPa | 801.17
15525 kPa | 801.53
15550 kPa | 801.84
15575 kPa | 802.17
15600 kPa | 802.47
15625 kPa | 802.79
15650 kPa | 803.12
15675 kPa | 803.42
15700 kPa | 803.73
15725 kPa | 804.02
15750 kPa | 804.34
15775 kPa | 804.65
15800 kPa | 804.99
15825 kPa | 805.27
15850 kPa | 805.58
15875 kPa | 805.91
15900 kPa | 806.23
15925 kPa | 806.51
15950 kPa | 806.83
15975 kPa | 807.09
16000 kPa | 807.41
16025 kPa | 807.71
16050 kPa | 807.98
16075 kPa | 808.29
16100 kPa | 808.61
16125 kPa | 808.91
16150 kPa | 809.2
16175 kPa | 809.5
16200 kPa | 809.79
16225 kPa | 810.09
16250 kPa | 810.39
16275 kPa | 810.69
16300 kPa | 810.98
16325 kPa | 811.27
16350 kPa | 811.55
16375 kPa | 811.82
16400 kPa | 812.11
16425 kPa | 812.38
16450 kPa | 812.66
16475 kPa | 812.9
16500 kPa | 813.24
16525 kPa | 813.5
16550 kPa | 813.76
16575 kPa | 814.03
16600 kPa | 814.33
16625 kPa | 814.6
16650 kPa | 814.87
16675 kPa | 815.12
16700 kPa | 815.43
16725 kPa | 815.67
16750 kPa | 815.94
16775 kPa | 816.22
16800 kPa | 816.46
16825 kPa | 816.74
16850 kPa | 817
16875 kPa | 817.27
16900 kPa | 817.54
16925 kPa | 817.8
16950 kPa | 818.05
16975 kPa | 818.28
17000 kPa | 818.55
17025 kPa | 818.81
17050 kPa | 819.06
17075 kPa | 819.27
17100 kPa | 819.55
17125 kPa | 819.79
17150 kPa | 820.09
17175 kPa | 820.32
17200 kPa | 820.54
17225 kPa | 820.77
